The values that follow come from US8609836B2, “4-aryl-2-anilino-pyrimidines” (Janssen Pharmaceutica NV, priority 2008, dated 2013).

pIC50: −log10 of the molar value.

Test [1] deals with HCT-116. In words: Cellular proliferation assay (Alamar blue), HCT-116. The test is classed as cell-based. The conditions noted are these: Homo sapiens, 10% FCS, 72 hours with compound, Alamar blue 4 h. The essentials:
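Cells were seeded in medium with 10% FCS at 37° C, 5% CO2, left 24 h without compound, then exposed to compounds for 72 h. Viability was read with Alamar blue (resazurin 9 μg/ml, K-ferrocyanide and K-ferricyanide 90 μM each), 6 h for U87-MG, 4 h for HCT-116, 24 h for A2780 and MDA-MB-231.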
(In general: Resazurin is reduced to fluorescent resorufin, in cell work by metabolically active cells.)

Test [2] deals with PLK3 (h) (Homo sapiens, UniProt Q9H4B4). In words: PLK3 human kinase inhibition, SPA. It counts as biochemical. The conditions noted are these: read-out: PLK3 pIC50 (converted). An outline of the steps: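 SPA: PLK3 (h) at 30 μg/ml with 2 μM biotinylated peptide, 0.1 μM ATP plus 2 nM [γ-33P]ATP in 50 mM Hepes pH 8.0, 2 mM MnCl2 and 1 mM DTT. Incubated 20 min at room temperature, then stopped with EDTA and streptavidin PVT beads. Scintillation imaged on Leadseeker.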
Sequence of PLK3 (h) (Q9H4B4 whole entry): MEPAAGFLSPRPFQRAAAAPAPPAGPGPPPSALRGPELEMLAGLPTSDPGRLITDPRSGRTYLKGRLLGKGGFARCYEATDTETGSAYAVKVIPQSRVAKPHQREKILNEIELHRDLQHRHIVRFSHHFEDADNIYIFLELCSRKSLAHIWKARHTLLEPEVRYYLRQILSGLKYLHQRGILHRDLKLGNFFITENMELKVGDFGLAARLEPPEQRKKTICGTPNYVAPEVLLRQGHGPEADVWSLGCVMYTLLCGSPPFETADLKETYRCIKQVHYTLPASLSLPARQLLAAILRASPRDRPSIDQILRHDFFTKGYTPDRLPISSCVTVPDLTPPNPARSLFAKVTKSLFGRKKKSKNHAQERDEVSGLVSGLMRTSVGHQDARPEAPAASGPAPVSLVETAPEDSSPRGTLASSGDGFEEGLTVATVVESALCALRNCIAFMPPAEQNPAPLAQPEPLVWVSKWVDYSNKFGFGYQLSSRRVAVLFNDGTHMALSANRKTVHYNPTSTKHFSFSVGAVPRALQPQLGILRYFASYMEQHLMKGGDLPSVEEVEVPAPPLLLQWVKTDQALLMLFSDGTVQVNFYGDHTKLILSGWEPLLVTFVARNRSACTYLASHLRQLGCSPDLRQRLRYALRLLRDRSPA

Test [3] has as its target AuroraB (h) (Homo sapiens, UniProt Q96GD4). As to the kind of experiment: Aurora-B human kinase inhibition, SPA. The following applies: read-out: AuroraB pIC50 (converted). It counts as biochemical. An outline of the steps: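 SPA with biotinylated peptide (3 μM) in 60 mM Hepes pH 7.5, Mg/Mn 3 mM each, 0.5 μM ATP plus [γ-33P]ATP, AuroraB at 0.5 μg/ml. The reaction runs 60 min at room temperature and is stopped with EDTA and streptavidin PVT beads. 33P-substrate is read by scintillation imaging.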

Test [4] addresses PLK2 (h) (Homo sapiens, UniProt Q9NYY3). As to the kind of experiment: PLK2 human kinase inhibition, SPA. It counts as biochemical. The conditions noted are these: read-out: PLK2 pIC50 (converted). The essentials:
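SPA read on Leadseeker: PLK2 (30 μg/ml) with 2 μM biotinylated peptide, 0.1 μM ATP plus 2 nM [γ-33P]ATP in 50 mM Hepes pH 8.0, 2 mM MnCl2, 1 mM DTT. Reaction ran 20 min at room temperature, then EDTA stop and streptavidin PVT beads.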

Test [5] addresses CDK4/CyclinD1 (h) (Homo sapiens, UniProt P11802). As to the kind of experiment: CDK4/CyclinD1 human kinase inhibition, SPA with GST-pRb substrate. The test is classed as biochemical. The following applies: read-out: CDK4 pIC50 (converted). The essentials:
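Human CDK4/CyclinD1 (2.5 μg/ml) was incubated with 40 μg/ml GST-pRb and 2 nM [γ-33P]ATP in 50 mM Hepes pH 7.5, 8 mM NaF, 20 mM MgCl2, 1 mM DTT for 60 min at room temperature. EDTA stop with glutathione SPA beads; phosphorylation read by scintillation counting.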

The target of test [6] is CDK1/CyclinB (h) (Homo sapiens, UniProt P06493). In words: CDK1/CyclinB human kinase inhibition, Invitrogen's FRET assay (Z'lyte). The test is classed as biochemical. The following applies: read-out: CDK1 pIC50 (converted). The essentials: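 Z'lyte FRET assay: human CDK1/CyclinB (0.2 μg/ml) with 2 μM Ser/Thr peptide 12 and 10 μM ATP in 50 mM Hepes pH 7.5, MgCl2, EGTA, Brij-35, 60 min at room temperature. Protease development 60 min, then emission ratio 460/538 nm read with excitation at 390 nm.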
Sequence of CDK1/CyclinB (h) (P06493 whole entry): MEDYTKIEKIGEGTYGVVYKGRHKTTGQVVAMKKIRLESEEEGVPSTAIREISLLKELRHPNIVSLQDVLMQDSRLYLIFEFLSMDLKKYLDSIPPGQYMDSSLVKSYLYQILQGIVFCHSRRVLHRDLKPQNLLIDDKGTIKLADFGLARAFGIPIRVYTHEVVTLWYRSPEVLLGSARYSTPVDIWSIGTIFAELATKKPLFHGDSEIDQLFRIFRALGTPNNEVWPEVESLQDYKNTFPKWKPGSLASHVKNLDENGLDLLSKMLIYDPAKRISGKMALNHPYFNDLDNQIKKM
Sequence of CDK1/CyclinB (h) (P14635 whole entry partner): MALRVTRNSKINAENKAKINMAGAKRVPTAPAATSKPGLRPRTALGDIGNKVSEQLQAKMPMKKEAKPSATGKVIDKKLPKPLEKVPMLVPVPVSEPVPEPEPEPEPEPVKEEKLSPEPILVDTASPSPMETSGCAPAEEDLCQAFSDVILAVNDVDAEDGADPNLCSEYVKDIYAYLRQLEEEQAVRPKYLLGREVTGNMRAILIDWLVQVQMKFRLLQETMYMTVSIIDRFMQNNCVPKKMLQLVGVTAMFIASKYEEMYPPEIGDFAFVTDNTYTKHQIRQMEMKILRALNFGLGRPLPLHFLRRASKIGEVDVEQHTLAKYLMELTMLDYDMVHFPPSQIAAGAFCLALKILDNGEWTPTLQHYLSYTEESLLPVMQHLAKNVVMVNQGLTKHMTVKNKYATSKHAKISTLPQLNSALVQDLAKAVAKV

Test [7] concerns the target GSK3β (h) (Homo sapiens, UniProt P49841). In words: GSK-3β human kinase inhibition, SPA. The following applies: read-out: GSK3b pIC50 (converted). It counts as biochemical. The essentials:
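Scintillation proximity assay: GSK3β (1 μg/ml) with 1 μM biotinylated peptide, 1 μM ATP plus [γ-33P]ATP in Tris pH 7.4, MgCl2, DTT. 60 min at room temperature, stopped with EDTA and streptavidin PVT beads; phosphorylation read by Leadseeker imaging.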

The subject of test [8] is H1299. In words: Cellular proliferation assay (Alamar blue), H1299. The test is classed as cell-based. The conditions noted are these: Homo sapiens, NCI-H1299; 10% FCS; 72 hours with compound; Alamar blue 4 h. An outline of the steps:
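This proliferation assay on NCI-H1299 cells used an initial 24-hour compound-free incubation after seeding, followed by 72 hours of compound treatment with 10% FCS serum at 37° C. and 5% (v/v) CO2. Viable cells were quantified by a 4 h Alamar blue incubation and fluorescent plate reading at 544 nm/590 nm, and effects were expressed relative to control cells.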

Sequence of GSK3β (h) (P49841 whole entry): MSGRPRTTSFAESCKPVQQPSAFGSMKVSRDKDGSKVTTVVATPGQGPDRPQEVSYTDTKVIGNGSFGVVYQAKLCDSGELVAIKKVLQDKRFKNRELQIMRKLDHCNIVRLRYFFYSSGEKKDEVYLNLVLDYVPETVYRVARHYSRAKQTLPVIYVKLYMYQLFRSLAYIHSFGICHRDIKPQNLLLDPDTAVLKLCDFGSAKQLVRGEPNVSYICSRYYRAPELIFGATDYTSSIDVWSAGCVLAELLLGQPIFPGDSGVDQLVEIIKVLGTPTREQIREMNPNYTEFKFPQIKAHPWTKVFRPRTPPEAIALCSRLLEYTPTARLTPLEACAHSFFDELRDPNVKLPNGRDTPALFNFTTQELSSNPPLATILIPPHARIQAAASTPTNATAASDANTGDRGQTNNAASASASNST
Sequence of PLK2 (h) (Q9NYY3 whole entry): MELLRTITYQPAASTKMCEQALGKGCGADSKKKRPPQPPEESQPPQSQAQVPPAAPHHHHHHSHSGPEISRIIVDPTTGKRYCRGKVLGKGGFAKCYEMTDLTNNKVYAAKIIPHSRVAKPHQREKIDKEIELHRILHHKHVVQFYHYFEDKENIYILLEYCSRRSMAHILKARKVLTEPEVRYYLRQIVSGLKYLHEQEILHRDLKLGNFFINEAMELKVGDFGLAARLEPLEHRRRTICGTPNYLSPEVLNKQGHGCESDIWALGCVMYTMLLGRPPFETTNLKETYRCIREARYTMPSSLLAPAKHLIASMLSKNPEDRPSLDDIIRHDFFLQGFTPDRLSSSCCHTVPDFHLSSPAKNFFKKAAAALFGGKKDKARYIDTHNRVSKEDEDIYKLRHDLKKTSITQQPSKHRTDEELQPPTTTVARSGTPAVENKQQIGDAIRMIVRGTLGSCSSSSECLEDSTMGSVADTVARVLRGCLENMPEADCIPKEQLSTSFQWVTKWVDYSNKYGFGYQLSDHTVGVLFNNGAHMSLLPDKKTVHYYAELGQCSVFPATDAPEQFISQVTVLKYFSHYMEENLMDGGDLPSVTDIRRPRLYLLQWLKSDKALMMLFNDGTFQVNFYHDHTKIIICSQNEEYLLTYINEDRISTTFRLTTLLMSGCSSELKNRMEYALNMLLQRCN
Sequence of AuroraB (h) (Q96GD4 whole entry): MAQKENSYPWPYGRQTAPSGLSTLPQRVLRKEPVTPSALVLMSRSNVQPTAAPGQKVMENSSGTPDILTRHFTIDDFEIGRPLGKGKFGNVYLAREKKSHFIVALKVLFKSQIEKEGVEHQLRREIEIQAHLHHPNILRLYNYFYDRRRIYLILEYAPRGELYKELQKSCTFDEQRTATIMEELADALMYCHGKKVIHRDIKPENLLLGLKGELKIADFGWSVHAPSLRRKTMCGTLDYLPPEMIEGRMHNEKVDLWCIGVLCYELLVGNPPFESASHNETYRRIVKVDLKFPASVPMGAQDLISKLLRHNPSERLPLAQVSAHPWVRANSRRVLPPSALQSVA
Sequence of CDK4/CyclinD1 (h) (P11802 whole entry): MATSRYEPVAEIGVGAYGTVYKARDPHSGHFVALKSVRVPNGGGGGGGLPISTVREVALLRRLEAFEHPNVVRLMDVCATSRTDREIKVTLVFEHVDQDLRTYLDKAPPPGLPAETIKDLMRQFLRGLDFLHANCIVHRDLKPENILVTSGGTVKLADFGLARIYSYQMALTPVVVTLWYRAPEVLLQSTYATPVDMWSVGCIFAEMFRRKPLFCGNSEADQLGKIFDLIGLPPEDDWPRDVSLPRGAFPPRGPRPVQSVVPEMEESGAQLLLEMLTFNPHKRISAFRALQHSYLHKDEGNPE
Sequence of CDK4/CyclinD1 (h) (P24385 whole entry partner): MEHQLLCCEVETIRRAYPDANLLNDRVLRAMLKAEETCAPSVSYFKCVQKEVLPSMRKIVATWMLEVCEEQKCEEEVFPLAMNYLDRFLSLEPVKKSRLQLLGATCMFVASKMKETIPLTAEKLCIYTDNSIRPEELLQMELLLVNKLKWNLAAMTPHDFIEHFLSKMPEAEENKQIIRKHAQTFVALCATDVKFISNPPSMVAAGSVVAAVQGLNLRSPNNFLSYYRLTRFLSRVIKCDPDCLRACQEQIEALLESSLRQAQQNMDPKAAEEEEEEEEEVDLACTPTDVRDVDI

On to `COc1ccc2cc1CN(C)CCNC(=O)C1CCN(CC1)Cc1cccc(c1)Nc1nccc-2n1` [Compound 83], for which the pIC50 in test [1] and in test [8] was less than 5.00 each time. The IC50 in test [2], in test [3], in test [4], in test [5], in test [6] and in test [7] was greater than 10 µM in each case.
Regarding `O=C(NC1CCCCC1)c1ccc2cc1CN1CCC[C@H]1C(=O)NCc1cccc(c1)-c1ccnc(n1)N2` [Compound 41], the pIC50 was 5.41 in test [1] and less than 5.00 in test [8]. For the same compound, the IC50 in test [2] is greater than 10 µM; in test [3], greater than 10 µM; in test [4], greater than 10 µM; in test [5], 5.62 µM; in test [6], greater than 10 µM; in test [7] it was 0.263 µM.
Regarding `O=C(NC1CCOCC1)c1ccc2cc1CN1CCC[C@H]1C(=O)NCc1cccc(c1)-c1ccnc(n1)N2` [Compound 46], the pIC50 in test [1] is 5.65; in test [8], less than 5.00. Moreover, the IC50 in test [2] is greater than 10 µM; in test [3], greater than 10 µM; in test [4] it was greater than 10 µM; in test [5], 5.75 µM; in test [6], greater than 10 µM; in test [7], 0.204 µM.
For `CN1CCCNC(=O)[C@@H]2CCCN2Cc2cc(cc(N3CCOCC3)c2)Nc2nccc(n2)-c2ccc(cc2)C1` [Compound 16], the pIC50 in test [1] and in test [8] was less than 5.00 in each case. Further, the IC50 in test [2], in test [3], in test [4], in test [5], in test [6] and in test [7] was greater than 10 µM throughout.
Take `C[C@H]1NCc2cc(ccc2N2CCOCC2)Nc2nccc(n2)-c2ccc(cc2)OCCCNC1=O` [Compound 86]: the negative-log IC50 (pIC50) in test [1] and in test [8] was less than 5.00 in each case. Also, the IC50 in test [2] was greater than 10 µM; in test [3], 10.5 µM; in test [4], greater than 10 µM; in test [5], 0.49 µM; in test [6], greater than 10 µM; in test [7] it was 0.0692 µM.
For the compound `COc1ccc2cc1CN(C)CCCNC(=O)[C@@H]1CCCN1Cc1cccc(c1)Nc1nccc-2n1` [Compound 180], the pIC50 in test [1] and in test [8] was less than 5.00 throughout. The IC50 in test [2], in test [3], in test [4], in test [5], in test [6] and in test [7] was greater than 10 µM in each case.
As to `O=C1NCCCOc2cccc(c2)-c2ccnc(n2)Nc2ccc(N3CCOCC3)c(c2)CN2CCC[C@@H]12` [Compound 96], the values for the pIC50 in test [1] and in test [8] were 5.27 and less than 5.00, respectively. Besides, the IC50 was greater than 10 µM in test [2]; greater than 10 µM in test [3]; greater than 10 µM in test [4]; greater than 10 µM in test [5]; greater than 10 µM in test [6]; 2.82 µM in test [7].
In the case of `COCCNCc1cc2cc(c1)Nc1nccc(n1)-c1cccc(c1)CNC(=O)[C@@H]1CCCN1C2` [Compound 33], the pIC50 in test [1] was 6.90; in test [8] it was 5.96. The IC50 in test [2] is greater than 10 µM; in test [3] it was 8.32 µM; in test [4] it was greater than 10 µM; in test [5], 1.26 µM; in test [6], 0.537 µM; in test [7] it was 0.145 µM.
As to `O=C1NCCNCc2ccc(cc2)-c2ccnc(n2)Nc2ccc(N3CCOCC3)c(c2)CN[C@H]1CO` [Compound 115], the pIC50 in test [1] and in test [8] was less than 5.00 throughout. In addition, the IC50 in test [2], in test [3], in test [4], in test [5], in test [6] and in test [7] was greater than 10 µM throughout.
As to `O=C1CN2CCN(CC2)Cc2cc(ccc2N2CCOCC2)Nc2nccc(n2)-c2ccc(cc2)OCCN1` [Compound 9], the pIC50 was 5.11 in test [1] and less than 5.00 in test [8]. Moreover, the IC50 was greater than 10 µM in test [2]; greater than 10 µM in test [3]; greater than 10 µM in test [4]; 7.94 µM in test [5]; greater than 10 µM in test [6]; 1.45 µM in test [7].
Consider `CN1CCNC(=O)[C@@H]2CCCN2Cc2cc(Br)cc(c2)Nc2nccc(n2)-c2ccc(cc2)C1` [Compound 155], for which the pIC50 in test [1] and in test [8] was less than 5.00 each time. The IC50 in test [2] is greater than 10 µM; in test [3] it was greater than 10 µM; in test [4], greater than 10 µM; in test [5], greater than 10 µM; in test [6], greater than 10 µM; in test [7], 2.34 µM.
Take `COc1ccc2cc1CN(C)CCCNC(=O)C1CCN(CC1)Cc1cc(cc(N3CCOCC3)c1)Nc1nccc-2n1` [Compound 80]: the pIC50 in test [1] and in test [8] was less than 5.00 in each case. The IC50 in test [2], in test [3], in test [4], in test [5], in test [6] and in test [7] was greater than 10 µM in each case.
With `COc1ccc2cc1CN(C)CCNC(=O)[C@@H]1CCCN1Cc1cccc(c1)Nc1nccc-2n1` [Compound 175], the pIC50 in test [1] and in test [8] was less than 5.00 each time. Also, the IC50 in test [2], in test [3], in test [4], in test [5], in test [6] and in test [7] was greater than 10 µM each time.
As to `O=C1NCc2cccc(c2)-c2ccnc(n2)Nc2cc(CNC3CCOCC3)cc(c2)CN2CCC[C@@H]12` [Compound 29], the pIC50 is 6.19 in test [1] and 5.42 in test [8]. In addition, the IC50 in test [2] is greater than 10 µM; in test [3] it was greater than 10 µM; in test [4], greater than 10 µM; in test [5] it was 1.23 µM; in test [6] it was 0.676 µM; in test [7], 0.112 µM.
On to `O=C1NCc2cccc(c2)-c2ccnc(n2)Nc2ccc(N3CCOCC3)c(c2)CN2CCC[C@@H]12` [Compound 1], for which the pIC50 is 5.42 in test [1] and 5.16 in test [8]. Besides, the IC50 in test [2] is greater than 10 µM; in test [3], 4.37 µM; in test [4] it was greater than 10 µM; in test [5] it was 2.14 µM; in test [6], 4.17 µM; in test [7], 0.724 µM.
Take `COc1ccc2cc1CNCCNC(=O)[C@@H]1C[C@@H](O)CN1Cc1cc(ccc1N1CCOCC1)Nc1nccc-2n1` [Compound 177]: the pIC50 in test [1] and in test [8] was less than 5.00 each time. The IC50 in test [2], in test [3], in test [4], in test [5], in test [6] and in test [7] was greater than 10 µM in each case.
Take `COc1ccc2cc1CNCCNC(=O)CN1CCN(CC1)Cc1cc(ccc1N1CCOCC1)Nc1nccc-2n1` [Compound 126]: the figures for the pIC50 in test [1] and in test [8] were 5.06 and less than 5.00, respectively. Besides, the IC50 was greater than 10 µM in test [2]; 8.71 µM in test [3]; greater than 10 µM in test [4]; greater than 10 µM in test [5]; greater than 10 µM in test [6]; greater than 10 µM in test [7].

One may read the pIC50 as −log10 of the IC50, conventionally taken in molar units.
